What follows are compounds tested on mutant Huntington (HTT) protein (assay: HTT Mutant HTRF iPSC assay (mHTT protein lowering)). Settings: human iPSC derived from a HTT patient with a poly-Q49 mutation.
Format: cell-based

SMILES | IC50 [µM]
Cc1cn2nc(-c3cc(F)c4nc(C5CCC(N(C)C)CC5)cn4c3)cc(C)c2n1 (stereo not shown) [Compound 168, 4-(6-(2,8-dimethylimidazo[1,2-b]pyridazin-6-yl)-8-fluoroimidazo[1,2-a]pyridin-2-yl)-N,N-dimethylcyclohexan-1-amine] | < 0.1
Fc1cc(-c2ccc3nscc3c2)cn2cc(C3CCNCC3)nc12 [Compound 33, 5-(8-fluoro-2-(piperidin-4-yl)imidazo[1,2-a]pyridin-6-yl)benzo[c]isothiazole] | 1 to 9
Cc1cn2nc(-c3cc(F)c4nn(C5CCN(CC6CC6)CC5)cc4c3)cc2c(C)n1 [Compound 372, 2-(2-(1-(cyclopropylmethyl)piperidin-4-yl)-7-fluoro-2H-indazol-5-yl)-4,6-dimethylpyrazolo[1,5-a]pyrazine] | < 0.1
Cc1cn2nc(-c3ccc4nc(C5CCNCC5)cn4c3)cc(C)c2n1 [Compound 551, 2,8-dimethyl-6-[2-(4-piperidyl)imidazo[1,2-a]pyridin-6-yl]imidazo[1,2-b]pyridazine] | < 0.1
Cn1cc2cc(-c3cc(F)c4nn(C5CCNCC5)nc4c3)cc(F)c2n1 [Compound 138, 4-fluoro-6-(7-fluoro-2-methyl-2H-indazol-5-yl)-2-(piperidin-4-yl)-2H-benzo[d][1,2,3]triazole] | 0.1 to 1
Cc1cn2nc(-c3cc(F)c4nc(C5CCNC(C)(C)C5)cn4c3)cc(C)c2n1 (single isomer, unassigned) [Compound 235] | < 0.1
Cc1cn2nc(-c3cc(F)c4nc(C56CC(N(C)C7CC7)(C5)C6)cn4c3)cc(C)c2n1 [Compound 208, N-cyclopropyl-3-(6-(2,8-dimethylimidazo[1,2-b]pyridazin-6-yl)-8-fluoroimidazo[1,2-a]pyridin-2-yl)-N-methylbicyclo[1.1.1] pentan-1-amine] | 0.1 to 1
Cc1cn2nc(-c3cc(F)c4nc(C5CCNCC5)cn4c3)cc2c(C)n1 [Compound 195, 2-(8-fluoro-2-(piperidin-4-yl)imidazo[1,2-a]pyridin-6-yl)-4,6-dimethylpyrazolo[1,5-a]pyrazine] | < 0.1
Cc1cn2nc(-c3cc(F)c4nc(N(C)C5CCN(C(C)C)CC5)oc4c3)cc(C)c2n1 [Compound 469, 6-(2,8-dimethylimidazo[1,2-b]pyridazin-6-yl)-4-fluoro-N-(1-isopropylpiperidin-4-yl)-N-methylbenzo[d]oxazol-2-amine] | 0.1 to 1
Cc1cn2nc(-c3cc(F)c4nn(C5CCNCC5)nc4c3)cc2c(C)n1 [Compound 388, 6-(4,6-dimethylpyrazolo[1,5-a]pyrazin-2-yl)-4-fluoro-2-(piperidin-4-yl)-2H-benzo[d][1,2,3]triazole] | 0.1 to 1
Cc1cn2nc(-c3cc(F)c4nn(CC5CNC5)nc4c3)cc(C)c2n1 [Compound 383, 2-(azetidin-3-ylmethyl)-6-(2,8-dimethylimidazo[1,2-b]pyridazin-6-yl)-4-fluoro-2H-benzo[d][1,2,3]triazole] | 0.1 to 1
Cc1cn2nc(-c3cc(F)c4nc(NC(=O)C5CCNC6(CC6)C5)nn4c3)cc(C)c2n1 (racemic) [Compound 330, N-(6-(2,8-dimethylimidazo[1,2-b]pyridazin-6-yl)-8-fluoro-[1,2,4]triazolo[1,5-a]pyridin-2-yl)-4-azaspiro[2.5]octane-7-carboxamide] | 0.1 to 1
Cn1cc2cc(-c3cc(F)c4nc(C56CCC(N)(C5)C6)cn4c3)cc(F)c2n1 [Compound 72, 4-(8-fluoro-6-(7-fluoro-2-methyl-2H-indazol-5-yl)imidazo[1,2-a]pyridin-2-yl)bicyclo[2.1.1]hexan-1-amine] | 1 to 9
Cc1cn2nc(-c3cc(F)c4nc(N5CCC(CN(C)C)C5)oc4c3)cc(C)c2n1 (stereo not shown) [Compound 491, 1-(1-(6-(2,8-dimethylimidazo[1,2-b]pyridazin-6-yl)-4-fluorobenzo[d]oxazol-2-yl)pyrrolidin-3-yl)-N,N-dimethylmethanamine] | 0.1 to 1
Cc1cn2nc(-c3cc(F)c4nc(NC(=O)C5CN(C6CCC6)C5)cn4c3)cc(C)c2n1 [Compound 263, 1-cyclobutyl-N-(6-(2,8-dimethylimidazo[1,2-b]pyridazin-6-yl)-8-fluoroimidazo[1,2-a]pyridin-2-yl)azetidine-3-carboxamide] | < 0.1
Cc1cn2nc(-c3cc(F)c4nc(C5CC=CC5)cn4c3)cc(C)c2n1 [Compound 196, 6-(2-cyclopent-3-en-1-yl-8-fluoro-imidazo[1,2-a]pyridin-6-yl)-2,8-dimethyl-imidazo[1,2-b]pyridazine] | 0.1 to 1
Cc1cn2nc(-c3cc(F)c4nc(NC(=O)C5CN(C(C)C)C5)nn4c3)cc(C)c2n1 [Compound 324, N-[6-(2,8-dimethylimidazo[1,2-b]pyridazin-6-yl)-8-fluoro-[1,2,4]triazolo[1,5-a]pyridin-2-yl]-1-isopropyl-azetidine-3-carboxamide] | 1 to 9
Cc1cn2nc(-c3cc(F)c4nc(NC(=O)CC5CCCCN5C)nn4c3)cc(C)c2n1 (racemic) [Compound 328, N-(6-(2,8-dimethylimidazo[1,2-b]pyridazin-6-yl)-8-fluoro-[1,2,4]triazolo[1,5-a]pyridin-2-yl)-2-(1-methylpiperidin-2-yl)acetamide] | 0.1 to 1
Fc1cccc2sc(-c3cc(F)c4nc(C5CCNCC5)cn4c3)cc12 [Compound 43, 8-fluoro-6-(4-fluorobenzo[b]thiophen-2-yl)-2-(piperidin-4-yl)imidazo[1,2-a]pyridine] | 1 to 9

SMILES | IC50 [µM]
Cc1cn2nc(-c3cc(F)c4nn(C5CC6(CCNCC6)C5)nc4c3)cc(C)c2n1 [Compound 395, 6-(2,8-dimethylimidazo[1,2-b]pyridazin-6-yl)-4-fluoro-2-(7-azaspiro[3.5]nonan-2-yl)-2H-benzo[d][1,2,3]triazole] | < 0.1
Cc1cn2nc(-c3cc(F)c4nc(CC5CCN(C)CC5)cn4c3)cc(C)c2n1 [Compound 237, 6-(8-fluoro-2-((1-methylpiperidin-4-yl)methyl)imidazo[1,2-a]pyridin-6-yl)-2,8-dimethylimidazo[1,2-b]pyridazine] | < 0.1
Cc1cn2nc(-c3cc(F)c4nc(N5CCC(N6CCCC6)CC5)oc4c3)cc(C)c2n1 [Compound 477, 6-(2,8-dimethylimidazo[1,2-b]pyridazin-6-yl)-4-fluoro-2-(4-(pyrrolidin-1-yl)piperidin-1-yl)benzo[d]oxazole] | 0.1 to 1
Cc1cn2nc(-c3cc(F)c4nc(CC5CCNCC5)cn4c3)cc(C)c2n1 [Compound 238, 6-(8-fluoro-2-(piperidin-4-ylmethyl)imidazo[1,2-a]pyridin-6-yl)-2,8-dimethylimidazo[1,2-b]pyridazine] | < 0.1
Cc1cn2nc(-c3cc(F)c4nc(N5CCC6(CCN(C)CC6)CC5)oc4c3)cc(C)c2n1 [Compound 515, 6-(2,8-dimethylimidazo[1,2-b]pyridazin-6-yl)-4-fluoro-2-(9-methyl-3,9-diazaspiro[5.5]undecan-3-yl)benzo[d]oxazole] | 0.1 to 1
Fc1cc(-c2cccc3nonc23)cn2cc(C3CCNCC3)nc12 [Compound 48, 4-(8-fluoro-2-(piperidin-4-yl)imidazo[1,2-a]pyridin-6-yl)benzo[c][1,2,5]oxadiazole] | 1 to 9
Cc1cn2nc(-c3cc(F)c4nc(CC5CCN(C)CC5)nn4c3)cc(C)c2n1 [Compound 448, 6-(2,8-dimethylimidazo[1,2-b]pyridazin-6-yl)-8-fluoro-2-((1-methylpiperidin-4-yl)methyl)-[1,2,4]triazolo[1,5-a]pyridine] | 0.1 to 1
Cc1cn2nc(-c3cc(F)c4nc(C56CC(C5)N(C)C6)cn4c3)cc(C)c2n1 [Compound 80] | 0.1 to 1
Cc1cn2cc(-c3cc(F)c4[nH]c(C5CCNCC5)nc4c3)cc(Cl)c2n1 [Compound 144, 5-(8-chloro-2-methylimidazo[1,2-a]pyridin-6-yl)-7-fluoro-2-(piperidin-4-yl)-1H-benzo[d]imidazole] | 1 to 9
Cc1cn2cc(-c3cc(F)c4nc(CC5CNC5)cn4c3)cc(F)c2n1 [Compound 21, 2-(azetidin-3-ylmethyl)-8,8′-difluoro-2′-methyl-6,6′-biimidazo[1,2-a]pyridine] | 1 to 9
Cc1cn2nc(-c3cc(F)c4nc(C5CCN(C)C5)cn4c3)cc(C)c2n1 (single isomer, unassigned) [Compound 186] | 0.1 to 1
Cc1cn2nc(-c3cc(F)c4nc(NC(=O)C5CCN(C)CC5)nn4c3)cc(C)c2n1 [Compound 317, N-(6-(2,8-dimethylimidazo[1,2-b]pyridazin-6-yl)-8-fluoro-[1,2,4]triazolo[1,5-a]pyridin-2-yl)-1-methylpiperidine-4-carboxamide] | 0.1 to 1
Cc1cn2nc(-c3cc(F)c4nc(NC(=O)[C@@H]5CN[C@H]5C)cn4c3)cc(C)c2n1 (stereo in doubt) [Compound 287, rel-(2R,3S)-N-(6-(2,8-dimethylimidazo[1,2-b]pyridazin-6-yl)-8-fluoroimidazo[1,2-a]pyridin-2-yl)-2-methylazetidine-3-carboxamide] | < 0.1
Cc1nc2c(C)cc(-c3cc(F)c4nc(C5CCNCC5)cn4c3)cn2n1 [Compound 123, 6-(8-fluoro-2-(piperidin-4-yl)imidazo[1,2-a]pyridin-6-yl)-2,8-dimethyl-[1,2,4]triazolo[1,5-a]pyridine] | 0.1 to 1
Cc1cn2nc(-c3cc(F)c4nc(N5CCC(C)(CN(C)C)C5)oc4c3)cc(C)c2n1 (stereo not shown) [Compound 474, 1-(1-(6-(2,8-dimethylimidazo[1,2-b]pyridazin-6-yl)-4-fluorobenzo[d]oxazol-2-yl)-3-methylpyrrolidin-3-yl)-N,N-dimethylmethanamine] | 0.1 to 1
Cc1cn2nc(-c3cc(F)c4nc(C5CCN(C)C6(CC6)C5)cn4c3)cc(C)c2n1 (single isomer, unassigned) [Compound 209] | < 0.1
Cc1cn2nc(-c3cc(F)c4nc([C@H]5CCNC5)cn4c3)cc(C)c2n1 (single isomer, unassigned) [Compound 190] | 0.1 to 1
Cc1cn2nc(-c3cc(F)c4nc(C(=O)NC5CN(C(C)C)C5)cn4c3)cc(C)c2n1 [Compound 331, 6-(2,8-dimethylimidazo[1,2-b]pyridazin-6-yl)-8-fluoro-N-(1-isopropylazetidin-3-yl)imidazo[1,2-a]pyridine-2-carboxamide] | < 0.1
